From ChEMBL document CHEMBL2406903, “FPRL-1 Receptor Modulators May Provide Treatment for Inflammation” (ACS Med Chem Lett, 2013)

target: T1, N-formyl peptide receptor 2 (Homo sapiens) (UniProt P25090); assay: Modulation of FPRL1 (unknown origin) expressed in CHO-Ga16 cells assessed as induction of calcium activity at 0.61 to 10000 nM by FLIPR assay relative to control; type: functional, cell-based
T1 sequence (whole entry): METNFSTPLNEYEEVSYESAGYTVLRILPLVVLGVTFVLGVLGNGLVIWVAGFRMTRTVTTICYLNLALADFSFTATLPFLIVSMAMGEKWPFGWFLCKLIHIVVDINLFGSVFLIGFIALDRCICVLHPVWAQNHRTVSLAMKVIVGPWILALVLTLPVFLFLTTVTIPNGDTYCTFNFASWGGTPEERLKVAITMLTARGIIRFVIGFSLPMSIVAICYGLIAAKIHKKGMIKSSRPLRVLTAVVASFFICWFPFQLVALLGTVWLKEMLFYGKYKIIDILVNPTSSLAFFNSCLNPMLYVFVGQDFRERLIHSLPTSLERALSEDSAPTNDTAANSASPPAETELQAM

| fold change (FC) | SMILES |
| --- | --- |
| 0.96 | CC(C)C[C@H](NC(=O)Nc1ccc(Br)cc1)C(=O)NC(C)(C)C(=O)O |
| 0.45 | CC[C@@H](C)[C@@H](NC(=O)Nc1ccc(Br)cc1)C(=O)NCC(=O)O |
| 0.92 | CC(C)C[C@H](NC(=O)Nc1ccc(C(F)(F)F)cc1)C(=O)NC(C)(C)C(=O)O |
